Measured values published in ChEMBL document CHEMBL1201862, “PubChem BioAssay data set” (2004).
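Briefly, cells in 96-well plates were exposed to five compound concentrations for 48 h, and endpoints were estimated by linear interpolation. The concentration for 50% growth inhibition is given as GI50.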 Activity calls are given as the source filed them. Rule as the data show it: active = GI50 up to about 1.1 µM and inactive = higher.

Experiments:
Experiment in all cases: NCI-60 cell line screen, 48 h
786-0 = test system: 786-0
A498 = test system: A498
HCC 2998 = test system: HCC 2998
HCT-116 = test system: HCT-116
HT-29 = test system: HT-29
LOX IMVI = test system: LOX IMVI
M14 = test system: M14
Malme-3M = test system: Malme-3M
NCI-H522 = test system: NCI-H522
OVCAR-3 = test system: OVCAR-3
SF-295 = test system: SF-295
SK-MEL-28 = test system: SK-MEL-28
SK-MEL-2 = test system: SK-MEL-2
SNB-19 = test system: SNB-19
TK-10 = test system: TK-10
UACC-257 = test system: UACC-257
HL-60 = test system: HL-60

Measured: GI50

[N-]=[N+]=Nc1ccc(S(=O)(=O)Oc2cc(OS(=O)(=O)c3ccc(N=[N+]=[N-])cc3)cc(OS(=O)(=O)c3ccc(N=[N+]=[N-])cc3)c2)cc1
inactive: 786-0 > 100 µM | A498 > 100 µM | HCC 2998 > 100 µM | HCT-116 > 100 µM | HT-29 > 100 µM | LOX IMVI > 100 µM | M14 > 100 µM | Malme-3M > 100 µM | NCI-H522 > 100 µM | OVCAR-3 > 100 µM | SF-295 > 100 µM | SK-MEL-28 > 100 µM | SK-MEL-2 > 100 µM | SNB-19 > 10 µM | TK-10 > 100 µM | UACC-257 > 100 µM

C[C@]12CCC(=O)C=C1CC[C@@H]1C2CC[C@]2(C)Nc3c(cnn3-c3ccccc3)CC12 (stereo not given in full)
inactive: 786-0 > 100 µM | A498 > 100 µM | HCC 2998 > 100 µM | HCT-116 > 100 µM | HL-60 > 100 µM | HT-29 > 100 µM | M14 > 100 µM | Malme-3M > 100 µM | OVCAR-3 > 10 µM | SF-295 > 10 µM | SK-MEL-28 > 100 µM | SK-MEL-2 > 100 µM | TK-10 > 100 µM | UACC-257 > 100 µM

C=C1CC2(CCS(=O)(=O)c3ccccc32)OC1=O (stereo not given)
inactive: 786-0 4.32 µM | A498 17.3 µM | HCC 2998 21.9 µM | HL-60 2.96 µM | HT-29 12.2 µM | LOX IMVI 17.3 µM | M14 6.62 µM | Malme-3M 12.4 µM | NCI-H522 2.82 µM | OVCAR-3 7.52 µM | SF-295 21.1 µM | SK-MEL-28 13.3 µM | SK-MEL-2 10.7 µM | SNB-19 10.2 µM | TK-10 12.9 µM | UACC-257 14.5 µM

CCOc1ccc(NC(=O)CC2C(=O)Nc3ccccc3S2(=O)=O)cc1 (stereo not given)
inactive: 786-0 33.7 µM | A498 > 100 µM | HCC 2998 > 100 µM | HCT-116 > 100 µM | HL-60 > 100 µM | HT-29 > 100 µM | LOX IMVI > 100 µM | Malme-3M > 100 µM | NCI-H522 > 100 µM | OVCAR-3 77.1 µM | SF-295 49.4 µM | SK-MEL-28 > 100 µM | SK-MEL-2 75.2 µM | SNB-19 34.5 µM | TK-10 > 100 µM | UACC-257 > 100 µM

O=C1c2cccc3cccc(c23)C(=O)N1CCCN1CCN(CCCN2C(=O)c3cccc4cccc(c34)C2=O)CC1
inactive: 786-0 > 100 µM | A498 > 100 µM | HCC 2998 > 100 µM | HCT-116 > 100 µM | HL-60 > 100 µM | HT-29 > 100 µM | LOX IMVI > 100 µM | M14 > 100 µM | Malme-3M > 100 µM | OVCAR-3 > 100 µM | SF-295 > 100 µM | SK-MEL-2 > 100 µM | SNB-19 > 100 µM | TK-10 > 100 µM | UACC-257 > 100 µM

COc1nc(C(=O)O)c(Cl)c(OC)c1Cl
inactive: 786-0 > 100 µM | A498 > 100 µM | HCC 2998 > 100 µM | HCT-116 > 100 µM | HL-60 > 100 µM | HT-29 > 100 µM | M14 > 100 µM | Malme-3M > 100 µM | NCI-H522 > 100 µM | OVCAR-3 > 100 µM | SF-295 > 100 µM | SK-MEL-28 > 100 µM | SK-MEL-2 > 100 µM | SNB-19 > 100 µM | TK-10 > 100 µM | UACC-257 > 100 µM

COCCOc1cc(C)cc(/C=C(C)/C=C/C2=C(C)CCCC2(C)C)n1
inactive: 786-0 > 100 µM | A498 > 100 µM | HCT-116 30.7 µM | HT-29 28.6 µM | LOX IMVI 54.8 µM | M14 94 µM | Malme-3M 38.3 µM | NCI-H522 28.9 µM | OVCAR-3 > 100 µM | SF-295 > 100 µM | SK-MEL-28 > 100 µM | SK-MEL-2 49 µM | SNB-19 > 100 µM | TK-10 > 100 µM | UACC-257 33.2 µM

O=C(Nc1ccccc1[N+](=O)[O-])c1ccccc1
inactive: 786-0 > 100 µM | A498 > 100 µM | HCC 2998 > 100 µM | HCT-116 > 100 µM | HL-60 > 100 µM | HT-29 > 100 µM | LOX IMVI 95.9 µM | M14 > 100 µM | Malme-3M > 100 µM | NCI-H522 56.9 µM | OVCAR-3 > 100 µM | SF-295 > 100 µM | SK-MEL-28 > 100 µM | SNB-19 > 100 µM | TK-10 > 100 µM | UACC-257 > 100 µM

CCOC(=O)C(=O)Nc1ccccc1OCC
inactive: 786-0 > 100 µM | HCC 2998 > 100 µM | HCT-116 > 100 µM | HL-60 > 100 µM | HT-29 > 100 µM | LOX IMVI > 100 µM | M14 > 100 µM | Malme-3M > 100 µM | NCI-H522 > 100 µM | OVCAR-3 > 100 µM | SF-295 > 100 µM | SK-MEL-28 > 100 µM | SK-MEL-2 > 100 µM | SNB-19 > 100 µM | TK-10 > 100 µM | UACC-257 > 100 µM

CC(=O)NC1=C(NCCO)C(=O)c2ccccc2C1=O
inactive: 786-0 > 50 µM | HCC 2998 > 50 µM | HCT-116 30.1 µM | HL-60 20.8 µM | HT-29 > 50 µM | LOX IMVI > 50 µM | M14 > 50 µM | Malme-3M 12.8 µM | NCI-H522 24.5 µM | OVCAR-3 18.9 µM | SF-295 > 50 µM | SK-MEL-28 > 50 µM | SK-MEL-2 > 50 µM | SNB-19 > 50 µM | TK-10 > 50 µM | UACC-257 > 50 µM

CN1N=CSC12C(=O)N(c1ccccc1)C(=O)N2c1ccccc1 (stereo not given)
inactive: 786-0 > 100 µM | A498 > 100 µM | HCC 2998 > 100 µM | HCT-116 > 100 µM | HL-60 > 100 µM | HT-29 > 100 µM | LOX IMVI > 100 µM | M14 > 100 µM | Malme-3M > 100 µM | OVCAR-3 > 100 µM | SF-295 > 100 µM | SK-MEL-28 > 100 µM | SK-MEL-2 > 100 µM | SNB-19 > 100 µM | TK-10 > 100 µM | UACC-257 > 100 µM

CC1SC2=NC3=C(c4ccccc4C3=O)C(c3ccc(Cl)cc3)N2C1=O (stereo not given)
inactive: 786-0 > 100 µM | A498 > 100 µM | HCC 2998 > 100 µM | HL-60 > 100 µM | HT-29 > 100 µM | M14 > 100 µM | Malme-3M > 100 µM | NCI-H522 25.1 µM | OVCAR-3 > 100 µM | SF-295 > 100 µM | SK-MEL-28 > 100 µM | SK-MEL-2 > 100 µM | SNB-19 > 100 µM | TK-10 > 100 µM | UACC-257 > 100 µM

COc1ccc(/C=C/C(=O)c2sc(NC(=S)NC(=O)c3ccccc3F)nc2C)cc1OC
inactive: 786-0 > 100 µM | A498 > 100 µM | HCC 2998 > 100 µM | HL-60 46.2 µM | LOX IMVI > 100 µM | Malme-3M > 100 µM | NCI-H522 21.5 µM | OVCAR-3 > 100 µM | SF-295 > 100 µM | SK-MEL-28 66.7 µM | SK-MEL-2 > 100 µM | SNB-19 > 100 µM | TK-10 > 100 µM
